# Measured values published in ChEMBL document CHEMBL4417631, “Oral peptide inhibitors of interleukin-23 receptor and their use to treat inflammatory bowel diseases” (2017).
# Target: T1, Interleukin-23 receptor (Homo sapiens, UniProt Q5VWK5)
# T1 sequence (Q5VWK5 whole entry): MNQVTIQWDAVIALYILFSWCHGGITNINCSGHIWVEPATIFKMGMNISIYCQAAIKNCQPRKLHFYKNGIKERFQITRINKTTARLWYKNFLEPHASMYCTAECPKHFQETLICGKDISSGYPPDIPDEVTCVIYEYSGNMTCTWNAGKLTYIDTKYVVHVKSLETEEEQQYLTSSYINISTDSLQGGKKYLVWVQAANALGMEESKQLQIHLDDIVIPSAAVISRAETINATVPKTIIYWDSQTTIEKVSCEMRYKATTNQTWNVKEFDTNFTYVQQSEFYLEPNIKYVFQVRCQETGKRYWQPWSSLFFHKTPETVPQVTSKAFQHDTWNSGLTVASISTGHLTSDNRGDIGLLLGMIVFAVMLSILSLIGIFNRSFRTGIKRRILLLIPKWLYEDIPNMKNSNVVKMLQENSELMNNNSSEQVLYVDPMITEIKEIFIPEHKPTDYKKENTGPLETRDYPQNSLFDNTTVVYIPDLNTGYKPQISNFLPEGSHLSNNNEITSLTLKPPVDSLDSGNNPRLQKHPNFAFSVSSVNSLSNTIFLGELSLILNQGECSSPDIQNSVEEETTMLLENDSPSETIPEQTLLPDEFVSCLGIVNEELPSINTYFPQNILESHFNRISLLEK
# Test: Inhibition of interleukin-23 binding to human interleukin-23 receptor incubated for 2 hrs by competitive binding ELISA
row,Structure (SMILES),IC50
1,CC(=O)N[C@@H](CS)C(=O)N[C@@H](C)C(=O)N[C@@H](CC(=O)O)C(=O)N[C@@H](Cc1c[nH]c2ccccc12)C(=O)N[C@H](C(=O)N[C@@H](CS)C(=O)N[C@@H](Cc1ccc(O)cc1)C(=O)N[C@@H](Cc1c[nH]c2ccccc12)C(=O)N[C@@H](Cc1cnc[nH]1)C(=O)N[C@H](C(=O)N[C@@H](Cc1ccccc1)C(=O)N[C@H](CCCCN)C(=O)O)[C@@H](C)O)C(C)C,> 1 µM
2,CC(=O)NCCCC[C@H](NC(=O)[C@](C)(CCCCN)NC(=O)[C@H](Cc1ccc2ccccc2c1)NC(=O)[C@H](Cc1ccc(O)cc1)NC(=O)[C@@H]1CSCC[C@H](NC(C)=O)C(=O)N[C@@H](CCC(N)=O)C(=O)N[C@@H]([C@@H](C)O)C(=O)N[C@@H](Cc2c[nH]c3ccccc23)C(=O)N[C@@H](CCC(N)=O)C(=O)N1)C(=O)N[C@@H](CC(N)=O)C(=O)NCC(=O)NCC(=O)N[C@@H](CCC(=O)O)C(N)=O,0.025 to 0.1 µM
3,CC(C)[C@H](NC(=O)[C@H](Cc1c[nH]c2ccccc12)NC(=O)[C@H](CC(=O)O)NC(=O)[C@H](C)NC(=O)[C@@H](N)CS)C(=O)N[C@@H](CS)C(=O)N[C@@H](Cc1ccc(O)cc1)C(=O)N[C@@H](Cc1c[nH]c2ccccc12)C(N)=O,> 1 µM
4,CC(=O)NC1CC/C=C\CCC(C(=O)N[C@@H](Cc2ccc(O)cc2)C(=O)N[C@@H](Cc2c[nH]c3ccccc23)C(=O)N[C@@H](CCCNC(=N)N)C(=O)N[C@@H](CCCCN)C(=O)N[C@@H](Cc2ccccc2)C(=O)NCC(=O)NCCOCC(=O)N[C@H](CCCCN)C(N)=O)NC(=O)[C@H](CCC(N)=O)NC(=O)[C@H](Cc2c[nH]c3ccccc23)NC(=O)[C@H]([C@@H](C)O)NC(=O)[C@H](CCCNC(=N)N)NC1=O (some centres undefined),0.1 to 1 µM

# Results, then the compound that gave them:
row,IC50,Structure (SMILES)
1,> 6 µM,CC(=O)N[C@@H](CCC(N)=O)C(=O)N[C@H](C(=O)N[C@@H](Cc1c[nH]c2ccccc12)C(=O)N[C@@H](CCC(N)=O)C(=O)N[C@@H](CS)C(=O)N[C@@H](Cc1ccc(O)cc1)C(=O)N[C@@H](Cc1c[nH]c2ccccc12)C(=O)N(C)[C@@H](CC(C)C)C(=O)N[C@@H](CCC(=O)O)C(=O)N[C@@H](CC(N)=O)C(=O)NCC(N)=O)[C@@H](C)O
2,> 1 µM,CC(=O)N[C@@H](CS)C(=O)N[C@@H](CCC(N)=O)C(=O)N[C@H](C(=O)N[C@@H](Cc1c[nH]c2ccccc12)C(=O)N[C@@H](CCC(N)=O)C(=O)N[C@@H](CS)C(=O)N[C@@H](Cc1ccc(O)cc1)C(=O)N[C@@H](Cc1c[nH]c2ccccc12)C(=O)N(C)[C@@H](CCC(=O)O)C(=O)N[C@@H](CC(N)=O)C(=O)NCC(=O)NCCOCC(=O)N[C@H](CCCCN)C(=O)O)[C@@H](C)O
3,< 0.5 µM,CC(=O)N[C@@H](CS)C(=O)N[C@@H](CCC(N)=O)C(=O)N[C@H](C(=O)N[C@@H](Cc1c[nH]c2ccccc12)C(=O)N[C@@H](CCC(N)=O)C(=O)N[C@@H](CS)C(=O)N[C@@H](Cc1ccc(O)cc1)C(=O)N[C@@H](Cc1c[nH]c2ccccc12)C(=O)N[C@@H](CCCNC(=N)N)C(=O)N[C@@H](CCC(=O)O)C(=O)N[C@@H](CC(N)=O)C(=O)NCC(=O)NCCOCC(=O)N[C@H](CCCCN)C(N)=O)[C@@H](C)O
4,0.1 to 1 µM,CC(=O)N[C@H](C(=O)N[C@@H](CCC(N)=O)C(=O)N[C@H](C(=O)N[C@@H](Cc1c[nH]c2ccccc12)C(=O)N[C@@H](CCC(N)=O)C(=O)N[C@H](C(=O)N[C@@H](Cc1cc(F)cc(F)c1)C(=O)N[C@@H](Cc1ccc2ccccc2c1)C(=O)N[C@@](C)(CCCN)C(=O)N[C@@H](CCC(N)=O)C(=O)N[C@@H](CC(N)=O)C(=O)NCC(N)=O)C(C)(C)S)[C@@H](C)O)C(C)(C)S
5,> 30 µM,CC(=O)N[C@@H](CS)C(=O)N[C@@H](CCC(N)=O)C(=O)N[C@H](C(=O)N[C@@H](Cc1c[nH]c2ccccc12)C(=O)N[C@@H](CCC(N)=O)C(=O)N[C@@H](CS)C(=O)N[C@@H](Cc1ccc(O)cc1)C(=O)N[C@@H](Cc1ccc(Cl)c(Cl)c1)C(=O)N[C@@H](CCCNC(=N)N)C(=O)N[C@H](C(=O)N[C@@H](CC(N)=O)C(=O)NCC(=O)NCCOCC(=O)N[C@H](CCCCN)C(N)=O)C(C)C)[C@@H](C)O
